Measured values published in ChEMBL document CHEMBL3885861, “Open TG-GATES”.

Species on record: Rattus norvegicus
Assay: Open TG-GATES - Regimen: Single
Type: toxicity, organism-based, Sprague-Dawley
Parameters: regimen Single, gender Male, age 6 weeks
Conditions: in vivo, po, 1000 mg/kg, route gavage, dose level Middle; for APTT / Bas / Eos / Fbg / Hb / Ht / Lym / MCH / MCHC / MCV / Mono / Neu / PT / Plat / RBC / Ret / WBC: tissue Blood; for KIDNEY_L / KIDNEY_R / KIDNEY_TOTAL: tissue Kidney; for LIVER: tissue Liver; for A/G / ALP / ALT / AST / BUN / CRE / Ca / Cl / DBIL / GLC / IP / K / LDH / Na / PL / RALB / TBIL / TC / TG / TP / gamma-GTP: tissue Plasma

## CCN1CCCC1CNC(=O)c1cc(S(N)(=O)=O)ccc1OC (stereo unspecified) [SULPIRIDE]
3 h
  TERMINAL_BW: 201.4 g
  APTT: 17.3 s
  Bas: 0%
  Eos: 0.6%
  Fbg: 253.4 mg/dL
  Hb: 12.6 g/dL
  Ht: 39.6%
  Lym: 78.4%
  MCH: 20.8 pg
  MCHC: 31.8%
  MCV: 65.2 fL
  Mono: 3.4%
  Neu: 16.8%
  PT: 13.6 s
  Plat: 109.3 x10_4/uL
  RBC: 608 x10_4/ul
  Ret: 8.1%
  WBC: 83.5 x10_2/uL
  KIDNEY_L: 0.9 g
  KIDNEY_R: 0.9 g
  KIDNEY_TOTAL: 1.8 g
  LIVER: 9.2 g
  A/G: 0.9
  ALP: 1375.8 IU/L
  ALT: 36.6 IU/L
  AST: 74.2 IU/L
  BUN: 10.4 mg/dL
  CRE: 0.2 mg/dL
  Ca: 10.8 mg/dL
  Cl: 106.6 meq/L
  DBIL: 0.004 mg/dL
  GLC: 169.8 mg/dL
  IP: 8.2 mg/dL
  K: 4 meq/L
  LDH: 116.6 IU/L
  Na: 142.6 meq/L
  PL: 126.2 mg/dL
  RALB: 2.4 g/dL
  TBIL: 0.068 mg/dL
  TC: 63.4 mg/dL
  TG: 54.2 mg/dL
  TP: 5.1 g/dL
  gamma-GTP: 1.8 IU/L
6 h
  TERMINAL_BW: 201.9 g
  APTT: 18.2 s
  Bas: 0.2%
  Eos: 0.8%
  Fbg: 279.2 mg/dL
  Hb: 13.1 g/dL
  Ht: 40.9%
  Lym: 79.6%
  MCH: 20.9 pg
  MCHC: 32.1%
  MCV: 65.2 fL
  Mono: 3%
  Neu: 15.8%
  PT: 13.5 s
  Plat: 123.7 x10_4/uL
  RBC: 628.2 x10_4/ul
  Ret: 8.4%
  WBC: 61.1 x10_2/uL
  KIDNEY_L: 0.9 g
  KIDNEY_R: 0.9 g
  KIDNEY_TOTAL: 1.7 g
  LIVER: 8.4 g
  A/G: 0.9
  ALP: 1420 IU/L
  ALT: 35.2 IU/L
  AST: 69.8 IU/L
  BUN: 8 mg/dL
  CRE: 0.2 mg/dL
  Ca: 10.7 mg/dL
  Cl: 107.4 meq/L
  DBIL: 0.006 mg/dL
  GLC: 175 mg/dL
  IP: 8.9 mg/dL
  K: 4.1 meq/L
  LDH: 101.8 IU/L
  Na: 142 meq/L
  PL: 137.8 mg/dL
  RALB: 2.4 g/dL
  TBIL: 0.07 mg/dL
  TC: 76.2 mg/dL
  TG: 45.6 mg/dL
  TP: 5.1 g/dL
  gamma-GTP: 1.4 IU/L
